The Ki is a measure of affinity in units of concentration, obtained from inhibition or displacement.

This is an account of results in patent US8921376B2, “Pyrrolopyridines useful as inhibitors of protein kinase” (Vertex Pharmaceuticals Incorporated, priority 2005, dated 2014).

Assay type in all cases: biochemical
Common to all, as to conditions: Table 6; enzyme inhibition data (Ki)

Assay [1] has as its target T1, JAK3 (Homo sapiens, UniProt P52333).
T1 sequence (P52333 1-1124): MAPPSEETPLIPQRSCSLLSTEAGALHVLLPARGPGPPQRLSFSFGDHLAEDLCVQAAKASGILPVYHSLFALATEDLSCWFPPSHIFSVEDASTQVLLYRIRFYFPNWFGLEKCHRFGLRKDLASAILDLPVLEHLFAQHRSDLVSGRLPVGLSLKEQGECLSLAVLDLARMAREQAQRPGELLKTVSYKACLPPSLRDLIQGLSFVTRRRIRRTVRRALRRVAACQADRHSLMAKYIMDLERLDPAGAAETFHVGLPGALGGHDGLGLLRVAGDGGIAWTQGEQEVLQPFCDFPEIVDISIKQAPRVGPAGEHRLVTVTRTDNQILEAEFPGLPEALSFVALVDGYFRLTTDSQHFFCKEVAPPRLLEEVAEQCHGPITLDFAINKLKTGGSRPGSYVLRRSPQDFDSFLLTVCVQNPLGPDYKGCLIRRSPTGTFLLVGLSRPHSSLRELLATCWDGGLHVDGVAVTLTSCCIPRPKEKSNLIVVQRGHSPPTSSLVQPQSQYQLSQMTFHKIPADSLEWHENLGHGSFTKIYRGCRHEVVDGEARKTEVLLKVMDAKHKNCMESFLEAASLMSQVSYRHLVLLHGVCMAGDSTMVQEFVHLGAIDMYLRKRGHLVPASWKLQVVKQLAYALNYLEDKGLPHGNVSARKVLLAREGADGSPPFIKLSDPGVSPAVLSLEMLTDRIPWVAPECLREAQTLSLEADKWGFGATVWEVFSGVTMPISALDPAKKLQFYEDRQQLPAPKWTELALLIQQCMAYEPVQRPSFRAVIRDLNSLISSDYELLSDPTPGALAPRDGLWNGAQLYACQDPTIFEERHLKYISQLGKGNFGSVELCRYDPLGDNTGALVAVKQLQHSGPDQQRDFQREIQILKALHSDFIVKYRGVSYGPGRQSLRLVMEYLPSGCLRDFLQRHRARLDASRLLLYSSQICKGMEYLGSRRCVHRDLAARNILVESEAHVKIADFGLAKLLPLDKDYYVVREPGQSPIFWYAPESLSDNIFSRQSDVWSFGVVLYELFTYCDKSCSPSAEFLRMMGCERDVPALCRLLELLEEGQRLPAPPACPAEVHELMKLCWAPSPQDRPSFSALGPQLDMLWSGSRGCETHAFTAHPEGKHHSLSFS
The assay can be described thus: JAK3 inhibition assay (33P incorporation into poly(Glu)4Tyr). The gist of the method:
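After TCA quench and filter harvest, scintillation counting of 33P measured phosphorylation of poly(Glu)4Tyr (1 μM) by 1 nM JAK3. The 20-min, 25° C. reaction contained 5 μM ATP (200 μCi/μmole) in pH 7.4 HEPES buffer with 10 mM MgCl2.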

In assay [2] the target is ROCK I (Homo sapiens, UniProt Q13464). Nature of the assay: ROCK-I inhibition assay (radioactive enzyme assay, MBP substrate). In outline:
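Human ROCK at 5 nM phosphorylated 27 μM myelin basic protein with 13 μM [γ-33P]ATP (final) in HEPES pH 7.5, MgCl2, NaCl, DTT and 1.5% DMSO. Reactions ran 2 h at room temperature before TCA quench and filter-plate scintillation counting. After background subtraction, data were fit to give Ki(app).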

The target in assay [3] is JAK2 (Homo sapiens, UniProt O60674). Nature of the assay: JAK2 inhibition assay (as Example 3 with JAK-2 enzyme). In outline: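 In HEPES pH 7.4 buffer with 10 mM MgCl2, 1 mM DTT, 25 mM NaCl and 0.01% BSA, JAK2 enzyme phosphorylated poly(Glu)4Tyr (final 15 μM) using 33P-ATP (final 12 μM) for 20 min at room temperature (25 °C). Reactions stopped with TCA; incorporated 33P measured by scintillation after filtration.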
Sequence of JAK2 (O60674 whole entry): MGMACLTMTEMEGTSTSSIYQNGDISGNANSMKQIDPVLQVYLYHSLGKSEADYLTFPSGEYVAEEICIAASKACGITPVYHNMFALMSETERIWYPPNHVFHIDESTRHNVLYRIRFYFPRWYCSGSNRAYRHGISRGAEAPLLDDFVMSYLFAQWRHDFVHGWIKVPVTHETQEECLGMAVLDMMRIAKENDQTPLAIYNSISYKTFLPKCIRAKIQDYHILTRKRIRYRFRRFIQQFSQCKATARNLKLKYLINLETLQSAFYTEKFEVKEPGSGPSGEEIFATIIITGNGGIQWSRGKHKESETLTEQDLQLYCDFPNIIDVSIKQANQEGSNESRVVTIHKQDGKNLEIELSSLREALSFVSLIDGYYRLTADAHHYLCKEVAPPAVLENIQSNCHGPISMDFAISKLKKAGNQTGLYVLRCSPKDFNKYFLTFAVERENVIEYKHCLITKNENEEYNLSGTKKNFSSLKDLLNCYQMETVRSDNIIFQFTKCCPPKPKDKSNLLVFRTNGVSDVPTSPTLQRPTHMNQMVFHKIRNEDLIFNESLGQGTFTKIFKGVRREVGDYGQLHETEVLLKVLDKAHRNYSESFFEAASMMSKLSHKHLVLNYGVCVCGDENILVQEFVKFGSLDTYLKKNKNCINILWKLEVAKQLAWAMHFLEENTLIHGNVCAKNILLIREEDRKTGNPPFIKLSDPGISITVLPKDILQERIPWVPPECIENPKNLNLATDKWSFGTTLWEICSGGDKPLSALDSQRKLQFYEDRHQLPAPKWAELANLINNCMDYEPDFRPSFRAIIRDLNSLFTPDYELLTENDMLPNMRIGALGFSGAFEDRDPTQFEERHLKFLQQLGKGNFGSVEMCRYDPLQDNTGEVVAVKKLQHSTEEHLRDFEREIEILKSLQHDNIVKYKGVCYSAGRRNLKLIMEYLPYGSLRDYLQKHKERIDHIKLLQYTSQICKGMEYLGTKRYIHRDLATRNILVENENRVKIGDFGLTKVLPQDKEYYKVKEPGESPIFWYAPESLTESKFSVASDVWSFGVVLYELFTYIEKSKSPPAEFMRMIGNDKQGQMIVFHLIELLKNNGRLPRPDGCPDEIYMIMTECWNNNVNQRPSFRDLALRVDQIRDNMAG

Molecules are shown by their SMILES.

Sequence of ROCK I (Q13464 whole entry): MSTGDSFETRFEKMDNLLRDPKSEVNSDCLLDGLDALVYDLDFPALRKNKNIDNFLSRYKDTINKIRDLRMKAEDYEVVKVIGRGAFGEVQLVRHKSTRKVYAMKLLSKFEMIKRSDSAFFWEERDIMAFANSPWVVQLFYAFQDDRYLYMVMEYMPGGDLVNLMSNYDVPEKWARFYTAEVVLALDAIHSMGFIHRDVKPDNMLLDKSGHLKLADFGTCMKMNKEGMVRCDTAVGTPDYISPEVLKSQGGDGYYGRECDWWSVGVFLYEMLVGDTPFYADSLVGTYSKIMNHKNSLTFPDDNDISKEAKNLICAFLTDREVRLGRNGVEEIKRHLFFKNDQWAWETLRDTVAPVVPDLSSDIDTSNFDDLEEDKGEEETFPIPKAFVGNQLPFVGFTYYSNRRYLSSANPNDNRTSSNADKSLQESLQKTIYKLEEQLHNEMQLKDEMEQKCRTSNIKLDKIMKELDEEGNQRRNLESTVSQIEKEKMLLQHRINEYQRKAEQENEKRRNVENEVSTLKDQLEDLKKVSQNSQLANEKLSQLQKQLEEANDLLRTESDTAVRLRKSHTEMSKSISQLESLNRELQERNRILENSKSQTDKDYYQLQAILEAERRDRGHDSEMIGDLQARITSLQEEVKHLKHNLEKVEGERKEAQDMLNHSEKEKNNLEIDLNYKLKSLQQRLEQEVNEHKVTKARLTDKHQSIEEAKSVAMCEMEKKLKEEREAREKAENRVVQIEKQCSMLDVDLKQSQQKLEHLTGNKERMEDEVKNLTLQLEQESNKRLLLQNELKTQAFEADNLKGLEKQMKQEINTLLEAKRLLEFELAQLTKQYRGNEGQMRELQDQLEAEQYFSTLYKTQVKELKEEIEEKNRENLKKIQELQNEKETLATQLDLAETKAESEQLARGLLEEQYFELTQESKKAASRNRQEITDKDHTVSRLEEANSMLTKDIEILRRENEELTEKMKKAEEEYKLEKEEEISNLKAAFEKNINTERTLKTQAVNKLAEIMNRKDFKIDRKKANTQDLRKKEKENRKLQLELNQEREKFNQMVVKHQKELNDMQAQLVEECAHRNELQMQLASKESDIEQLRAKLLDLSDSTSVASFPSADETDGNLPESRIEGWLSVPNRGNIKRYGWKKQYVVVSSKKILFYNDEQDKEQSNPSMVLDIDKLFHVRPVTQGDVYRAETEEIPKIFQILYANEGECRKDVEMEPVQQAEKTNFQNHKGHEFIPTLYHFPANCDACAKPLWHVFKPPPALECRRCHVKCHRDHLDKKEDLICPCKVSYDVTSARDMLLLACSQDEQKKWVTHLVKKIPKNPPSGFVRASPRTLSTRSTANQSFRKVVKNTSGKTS

Regarding `N#CCCN(Cc1ccccc1)C(=O)c1cc(-c2c(Cl)cnc3[nH]ccc23)c[nH]1` [compound 343], the Ki in assay [1] is under 500 nM; in assay [2] it was 500 to 5000 nM; in assay [3], under 500 nM.

Consider `CCN(Cc1ccccc1)C(=O)c1cc(-c2c(Cl)cnc3[nH]ccc23)c[nH]1` [compound 344], for which the results for the inhibitory constant (Ki) in assay [1], in assay [2] and in assay [3] were under 500 nM, 500 to 5000 nM and under 500 nM, respectively.

`CCN(CCO)C(=O)c1cc(-c2c(Cl)cnc3[nH]ccc23)c[nH]1` [compound 345]: the Ki is under 500 nM in assay [1], 500 to 5000 nM in assay [2] and under 500 nM in assay [3].

`O=C(c1cc(-c2c(Cl)cnc3[nH]ccc23)c[nH]1)N1CCCC1CO` (stereo not drawn) [compound 346]: the figures for the Ki in assay [1], in assay [2] and in assay [3] were under 500 nM, over 4000 nM and under 500 nM, respectively.

As to `O=C(c1cc(-c2c(Cl)cnc3[nH]ccc23)c[nH]1)N1CCC(CO)CC1` [compound 347], the values for the Ki in assay [1], in assay [2] and in assay [3] were under 500 nM, 500 to 5000 nM and under 500 nM, respectively.

As for `CCOC(=O)C1CCN(C(=O)c2cc(-c3c(Cl)cnc4[nH]ccc34)c[nH]2)CC1` [compound 348], the Ki in assay [1] was 500 to 5000 nM; in assay [2], over 4000 nM; in assay [3], 500 to 5000 nM.

`CN(C)CCCN(C)C(=O)c1cc(-c2c(Cl)cnc3[nH]ccc23)c[nH]1` [compound 349]: the Ki is 500 to 5000 nM in assay [1], over 4000 nM in assay [2] and 500 to 5000 nM in assay [3].

For `O=C(c1cc(-c2c(Cl)cnc3[nH]ccc23)c[nH]1)N1CCC(O)C1` (stereo not drawn) [compound 350], the Ki in assay [1] is under 500 nM; in assay [2], over 4000 nM; in assay [3], under 500 nM.

For the molecule `CN(CCc1ccccn1)C(=O)c1cc(-c2c(Cl)cnc3[nH]ccc23)c[nH]1` [compound 351], the figures for the Ki in assay [1], in assay [2] and in assay [3] were under 500 nM, over 4000 nM and under 500 nM, respectively.

Turning to `NC(=O)C1CCCN1C(=O)c1cc(-c2c(Cl)cnc3[nH]ccc23)c[nH]1` (stereo not drawn) [compound 352], the Ki in assay [1] was under 500 nM; in assay [2] it was over 4000 nM; in assay [3], under 500 nM.

As for `CCN(Cc1ccncc1)C(=O)c1cc(-c2c(Cl)cnc3[nH]ccc23)c[nH]1` [compound 353], the Ki in assay [1] was under 500 nM; in assay [2] it was 500 to 5000 nM; in assay [3] it was under 500 nM.

With `CN(Cc1cccnc1)C(=O)c1cc(-c2c(Cl)cnc3[nH]ccc23)c[nH]1` [compound 354], the Ki in assay [1] is under 500 nM; in assay [2] it was 500 to 5000 nM; in assay [3] it was under 500 nM.

`CN(C)C1CCN(C(=O)c2cc(-c3c(Cl)cnc4[nH]ccc34)c[nH]2)C1` (stereo not drawn) [compound 355]: the values for the Ki in assay [1], in assay [2] and in assay [3] were 500 to 5000 nM, over 4000 nM and under 500 nM, respectively.

For the molecule `O=C(c1cc(-c2c(Cl)cnc3[nH]ccc23)c[nH]1)N1CCCC(O)C1` (stereo not drawn) [compound 356], the Ki is under 500 nM in assay [1], 500 to 5000 nM in assay [2] and under 500 nM in assay [3].

Turning to `N#CC1CCCN1C(=O)c1cc(-c2c(Cl)cnc3[nH]ccc23)c[nH]1` (stereo not drawn) [compound 357], the Ki in assay [1] is under 500 nM; in assay [2] it was 500 to 5000 nM; in assay [3] it was under 500 nM.

Consider `O=C(c1cc(-c2c(Cl)cnc3[nH]ccc23)c[nH]1)N1CCCC1C(F)(F)F` (stereo not drawn) [compound 358], for which the Ki in assay [1] was under 500 nM; in assay [2], 500 to 5000 nM; in assay [3] it was under 500 nM.

Consider `CC1CCC(C)N1C(=O)c1cc(-c2c(Cl)cnc3[nH]ccc23)c[nH]1` (stereo not drawn) [compound 359], for which the inhibition constant (Ki) was under 500 nM in assay [1], 500 to 5000 nM in assay [2] and under 500 nM in assay [3].

Turning to `CN(CC(F)(F)F)C(=O)c1cc(-c2c(Cl)cnc3[nH]ccc23)c[nH]1` [compound 360], the Ki in assay [1] was under 500 nM; in assay [2], 500 to 5000 nM; in assay [3], under 500 nM.

In the case of `CCN(CCO)C(=O)c1cc(-c2ccnc3[nH]ccc23)c[nH]1` [compound 361], the Ki in assay [1], in assay [2] and in assay [3] was under 500 nM in each case.

For `O=C(c1cc(-c2ccnc3[nH]ccc23)c[nH]1)N1CCCC1CO` (stereo not drawn) [compound 362], the inhibitory constant (Ki) is 500 to 5000 nM in assay [1], 500 to 5000 nM in assay [2] and under 500 nM in assay [3].

Turning to `O=C(c1cc(-c2ccnc3[nH]ccc23)c[nH]1)N1CCC(CO)CC1` [compound 363], the Ki was 500 to 5000 nM in assay [1], 500 to 5000 nM in assay [2] and under 500 nM in assay [3].

Turning to `CCOC(=O)C1CCN(C(=O)c2cc(-c3ccnc4[nH]ccc34)c[nH]2)CC1` [compound 364], the Ki in assay [1], in assay [2] and in assay [3] was 500 to 5000 nM in each case.

For `CN(C)CCCN(C)C(=O)c1cc(-c2ccnc3[nH]ccc23)c[nH]1` [compound 365], the Ki in assay [1] is 500 to 5000 nM; in assay [2], under 500 nM; in assay [3] it was 500 to 5000 nM.

On to `O=C(c1cc(-c2ccnc3[nH]ccc23)c[nH]1)N1CCC(O)C1` (stereo not drawn) [compound 366], for which the Ki in assay [1], in assay [2] and in assay [3] was 500 to 5000 nM throughout.

In the case of `CN(CCc1ccccn1)C(=O)c1cc(-c2ccnc3[nH]ccc23)c[nH]1` [compound 367], the Ki in assay [1], in assay [2] and in assay [3] was under 500 nM in each case.

Turning to `NC(=O)C1CCCN1C(=O)c1cc(-c2ccnc3[nH]ccc23)c[nH]1` (stereo not drawn) [compound 368], the inhibition constant (Ki) in assay [1] was under 500 nM; in assay [2], 500 to 5000 nM; in assay [3] it was 500 to 5000 nM.

Consider `CCN(Cc1ccncc1)C(=O)c1cc(-c2ccnc3[nH]ccc23)c[nH]1` [compound 369], for which the Ki in assay [1], in assay [2] and in assay [3] was under 500 nM each time.

In the case of `CN(Cc1cccnc1)C(=O)c1cc(-c2ccnc3[nH]ccc23)c[nH]1` [compound 370], the Ki in assay [1], in assay [2] and in assay [3] was under 500 nM each time.

As to `CN(C)C1CCN(C(=O)c2cc(-c3ccnc4[nH]ccc34)c[nH]2)C1` (stereo not drawn) [compound 371], the Ki in assay [1], in assay [2] and in assay [3] was 500 to 5000 nM in each case.

As to `O=C(c1cc(-c2ccnc3[nH]ccc23)c[nH]1)N1CCCC(O)C1` (stereo not drawn) [compound 372], the Ki in assay [1], in assay [2] and in assay [3] was 500 to 5000 nM in each case.

In the case of `N#CC1CCCN1C(=O)c1cc(-c2ccnc3[nH]ccc23)c[nH]1` (stereo not drawn) [compound 373], the inhibition constant (Ki) in assay [1], in assay [2] and in assay [3] was under 500 nM in each case.

`O=C(c1cc(-c2ccnc3[nH]ccc23)c[nH]1)N1CCCC1C(F)(F)F` (stereo not drawn) [compound 374]: the Ki in assay [1], in assay [2] and in assay [3] was under 500 nM each time.

As for `CC1CCC(C)N1C(=O)c1cc(-c2ccnc3[nH]ccc23)c[nH]1` (stereo not drawn) [compound 375], the Ki in assay [1], in assay [2] and in assay [3] was under 500 nM in each case.

Consider `CN(CC(F)(F)F)C(=O)c1cc(-c2ccnc3[nH]ccc23)c[nH]1` [compound 376], for which the Ki in assay [1], in assay [2] and in assay [3] was under 500 nM in each case.

For `O=C(c1cc(-c2ccnc3[nH]ccc23)c[nH]1)N1CCC(O)C1` (stereo not drawn) [compound 377], the inhibitory constant (Ki) is 500 to 5000 nM in assay [1], under 500 nM in assay [2] and 500 to 5000 nM in assay [3].

Consider `CC(C)CC(=O)Nc1nc(-c2ccnc3[nH]ccc23)cs1` [compound 378], for which the Ki in assay [1], in assay [2] and in assay [3] was under 500 nM each time.

In the case of `O=C(CC1CCCC1)Nc1nc(-c2ccnc3[nH]ccc23)cs1` [compound 379], the inhibition constant (Ki) in assay [1], in assay [2] and in assay [3] was under 500 nM each time.
